Results from the NIST ThermoML archive (doi:10.1007/s10765-019-2568-3).

Key:
[1] = molar heat capacity at constant pressure; conditions: 100 kPa, DSC
[2] = for thermal conductivity / thermal diffusivity: 100 kPa; for thermal diffusivity: Laser flash apparatus

[Fe] [iron]
Conditions | molar heat capacity at constant pressure, [1] [J/K/mol] | thermal conductivity, [2] [W/m/K] | thermal diffusivity, [2] [m2/s]
293.15 K, Crystal 4 | 24.96 | 82.5 | 2.22e-05
373.15 K, Crystal 4 | 27.53 | 73.4 | 1.92e-05
473.15 K, Crystal 4 | 29.54 | 65.5 | 1.58e-05
573.15 K, Crystal 4 | 31.38 | 58.2 | 1.31e-05
673.15 K, Crystal 4 | 34.23 | 52 | 1.08e-05
773.15 K, Crystal 4 | 37.36 | 46.7 | 8.91e-06
873.15 K, Crystal 4 | 41.66 | 41.1 | 7.06e-06
973.15 K, Crystal 4 | 48.64 | 36.2 | 5.18e-06
1073.2 K, Crystal 3 | 52.72 | 31.5 | 4.49e-06
1173.2 K, Crystal 3 | 42.22 | 30 | 5.27e-06
1273.2 K, Crystal 2 | 33.62 | 28.4 | 6.33e-06

Conditions | mass density [kg/m3]
[2], 293 K, 101.33 kPa, Crystal 4 | 7849
